Assay results: ChEMBL document CHEMBL4610055, “Discovery and optimization of novel pyridines as highly potent and selective glycogen synthase kinase 3 inhibitors” (Bioorg Med Chem Lett, 2020)

Legend:
[1] = Inhibition of GSK3 (unknown origin) using CREB peptide as substrate; set-up: species or system Homo sapiens
[2] = Inhibition of GSK3 in CHO cells expressing insulin receptor assessed as activation of glycogen synthase measured after 30 mins in presence of glucose-6-phosphate by filter paper assay; assay type: cell-based; details: Cricetulus griseus, 0.5 h
[3] = molecular target: Glycogen synthase kinase-3 alpha (Homo sapiens) (UniProt P49840); test: Inhibition of wild-type human full length GSK3A (M1 to S483 residues) expressed in bacterial expression system at 10 uM by Kinomescan method relative to control
[4] = molecular target: Glycogen synthase kinase-3 beta (Homo sapiens) (UniProt P49841); test: Inhibition of wild-type human full length GSK3B (M1 to T433 residues) expressed in mammalian expression system at 10 uM by Kinomescan method relative to control
[5] = molecular target: Mitogen-activated protein kinase 8 (Homo sapiens) (UniProt P45983); test: Inhibition of wild-type human full length JNK1 (M1 to Q384 residues) expressed in mammalian expression system at 10 uM by Kinomescan method relative to control
[6] = molecular target: Mitogen-activated protein kinase 9 (Homo sapiens) (UniProt P45984); test: Inhibition of wild-type human full length JNK2 (M1 to Q382 residues) expressed in mammalian expression system at 10 uM by Kinomescan method relative to control
[7] = molecular target: Mitogen-activated protein kinase 10 (Homo sapiens) (UniProt P53779); test: Inhibition of wild-type human partial length JNK3 (V28 to Q422 residues) expressed in mammalian expression system at 10 uM by Kinomescan method relative to control
[8] = molecular target: Serine/threonine-protein kinase B-raf (Homo sapiens) (UniProt P15056); test: Inhibition of wild-type human partial length BRAF (S429 to E741 residues) expressed in mammalian expression system at 10 uM by Kinomescan method relative to control
[9] = Half life in ZDF rat; assay type: ADME; details: in vivo
[10] = Half life in Beagle dog; assay type: ADME, Canis lupus familiaris; details: in vivo
[11] = Oral bioavailability in ZDF rat; assay type: ADME, organism-based; details: in vivo
Rattus norvegicus = test: Antidiabetic activity in ZDF rat administered as single dose via oral gavage by OGTT; assay type: functional
[12] = Activity in CHO cells expressing insulin receptor assessed as activation of glycogen synthase

Sequence of Serine/threonine-protein kinase B-raf (Homo sapiens) (P15056 whole entry, the tested form may be a part): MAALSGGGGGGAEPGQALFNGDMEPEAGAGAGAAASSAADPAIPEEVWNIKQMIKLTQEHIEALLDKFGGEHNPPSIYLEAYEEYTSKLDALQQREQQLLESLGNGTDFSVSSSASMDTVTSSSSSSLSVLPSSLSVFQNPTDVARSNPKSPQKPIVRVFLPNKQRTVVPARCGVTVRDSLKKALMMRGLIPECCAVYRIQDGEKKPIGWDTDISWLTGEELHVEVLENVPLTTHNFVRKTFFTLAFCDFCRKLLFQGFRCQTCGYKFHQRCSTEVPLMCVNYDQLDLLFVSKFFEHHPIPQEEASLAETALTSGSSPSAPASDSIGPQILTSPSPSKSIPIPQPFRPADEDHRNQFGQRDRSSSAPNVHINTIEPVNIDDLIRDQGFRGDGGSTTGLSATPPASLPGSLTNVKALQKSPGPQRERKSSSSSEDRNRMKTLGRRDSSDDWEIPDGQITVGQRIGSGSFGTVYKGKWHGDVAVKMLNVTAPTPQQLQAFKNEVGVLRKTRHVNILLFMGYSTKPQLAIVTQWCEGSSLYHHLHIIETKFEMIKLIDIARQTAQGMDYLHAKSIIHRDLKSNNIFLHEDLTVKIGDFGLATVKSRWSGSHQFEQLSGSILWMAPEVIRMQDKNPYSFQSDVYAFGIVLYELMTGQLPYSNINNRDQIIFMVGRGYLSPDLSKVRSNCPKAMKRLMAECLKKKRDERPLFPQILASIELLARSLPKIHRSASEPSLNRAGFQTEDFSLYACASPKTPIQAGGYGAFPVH
Sequence of Glycogen synthase kinase-3 beta (Homo sapiens) (P49841 whole entry, looked up, the tested form may be a part): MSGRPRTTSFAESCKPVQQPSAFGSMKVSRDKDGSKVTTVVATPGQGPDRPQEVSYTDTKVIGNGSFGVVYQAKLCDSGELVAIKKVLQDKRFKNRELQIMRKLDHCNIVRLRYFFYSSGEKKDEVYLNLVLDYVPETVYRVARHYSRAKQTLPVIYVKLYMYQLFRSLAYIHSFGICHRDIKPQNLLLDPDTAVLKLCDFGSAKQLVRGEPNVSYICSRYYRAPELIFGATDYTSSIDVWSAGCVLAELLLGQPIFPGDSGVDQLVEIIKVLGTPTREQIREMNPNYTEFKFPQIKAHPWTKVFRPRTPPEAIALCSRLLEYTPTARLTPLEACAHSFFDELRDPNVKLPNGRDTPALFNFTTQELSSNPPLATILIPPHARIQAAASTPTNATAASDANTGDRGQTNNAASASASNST
Sequence of Mitogen-activated protein kinase 9 (Homo sapiens) (P45984 whole entry, looked up, the tested form may be a part): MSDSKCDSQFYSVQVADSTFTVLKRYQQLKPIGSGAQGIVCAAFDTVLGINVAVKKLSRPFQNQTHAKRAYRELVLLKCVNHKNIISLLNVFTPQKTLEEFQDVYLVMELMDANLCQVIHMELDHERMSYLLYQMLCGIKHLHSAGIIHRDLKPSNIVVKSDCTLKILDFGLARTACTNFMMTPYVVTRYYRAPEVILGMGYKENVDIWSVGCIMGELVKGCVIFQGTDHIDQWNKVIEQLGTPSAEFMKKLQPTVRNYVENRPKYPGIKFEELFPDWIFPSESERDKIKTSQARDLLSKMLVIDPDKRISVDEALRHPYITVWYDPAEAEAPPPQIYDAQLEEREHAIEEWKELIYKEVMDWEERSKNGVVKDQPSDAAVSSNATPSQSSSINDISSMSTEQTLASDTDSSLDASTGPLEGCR
Sequence of Mitogen-activated protein kinase 10 (Homo sapiens) (P53779 whole entry, the tested form may be a part): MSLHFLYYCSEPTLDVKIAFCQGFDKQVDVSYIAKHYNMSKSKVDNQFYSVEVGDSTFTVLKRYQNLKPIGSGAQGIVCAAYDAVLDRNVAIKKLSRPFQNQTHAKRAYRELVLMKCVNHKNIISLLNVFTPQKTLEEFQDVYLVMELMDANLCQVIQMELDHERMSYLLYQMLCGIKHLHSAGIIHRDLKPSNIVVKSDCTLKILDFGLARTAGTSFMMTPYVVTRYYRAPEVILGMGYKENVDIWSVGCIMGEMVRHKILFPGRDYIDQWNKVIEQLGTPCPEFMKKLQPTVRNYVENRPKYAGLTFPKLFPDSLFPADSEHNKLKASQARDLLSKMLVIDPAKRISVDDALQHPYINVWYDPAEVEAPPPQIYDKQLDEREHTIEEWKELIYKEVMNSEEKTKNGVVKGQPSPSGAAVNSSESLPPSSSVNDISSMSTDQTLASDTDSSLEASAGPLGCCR
Sequence of Glycogen synthase kinase-3 alpha (Homo sapiens) (P49840 2-483 limits assumed): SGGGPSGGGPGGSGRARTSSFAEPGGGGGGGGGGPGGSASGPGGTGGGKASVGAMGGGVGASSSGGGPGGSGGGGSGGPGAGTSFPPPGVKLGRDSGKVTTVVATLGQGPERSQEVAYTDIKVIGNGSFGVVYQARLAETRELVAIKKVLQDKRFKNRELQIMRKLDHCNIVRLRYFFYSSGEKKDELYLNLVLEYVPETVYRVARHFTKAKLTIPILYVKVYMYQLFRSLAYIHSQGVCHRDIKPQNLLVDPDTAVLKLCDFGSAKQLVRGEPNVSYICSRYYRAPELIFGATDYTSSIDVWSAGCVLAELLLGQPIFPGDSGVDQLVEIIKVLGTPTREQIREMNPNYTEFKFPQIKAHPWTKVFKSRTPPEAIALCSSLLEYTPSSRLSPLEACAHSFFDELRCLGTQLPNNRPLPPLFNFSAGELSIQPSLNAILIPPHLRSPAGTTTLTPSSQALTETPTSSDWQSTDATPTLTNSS
Sequence of Mitogen-activated protein kinase 8 (Homo sapiens) (P45983 whole entry, the tested form may be a part): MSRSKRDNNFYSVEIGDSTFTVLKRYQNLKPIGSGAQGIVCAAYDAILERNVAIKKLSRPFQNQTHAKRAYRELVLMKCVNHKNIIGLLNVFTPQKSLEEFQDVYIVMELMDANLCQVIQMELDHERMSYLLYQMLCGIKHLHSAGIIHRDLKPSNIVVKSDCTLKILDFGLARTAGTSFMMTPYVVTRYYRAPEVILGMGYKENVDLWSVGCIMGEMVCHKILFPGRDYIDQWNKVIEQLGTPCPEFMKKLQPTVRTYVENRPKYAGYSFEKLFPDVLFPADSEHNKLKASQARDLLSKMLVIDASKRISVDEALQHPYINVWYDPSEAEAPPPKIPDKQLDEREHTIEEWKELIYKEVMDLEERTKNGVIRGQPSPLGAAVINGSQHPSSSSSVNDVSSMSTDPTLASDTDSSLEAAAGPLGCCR

| SMILES | IC50 [1] | EC50 [2] | other results |
| --- | --- | --- | --- |
| CN1CCN(c2ccc(NCCNc3ccc([N+](=O)[O-])c(N)n3)nc2-c2ccoc2)C(=O)C1 | 3700 nM | – | – |
| Nc1nc(NCCNc2ccc(N3CCOCC3=O)c(-c3ccc(Cl)cc3Cl)n2)ccc1[N+](=O)[O-] | 11 nM | 510 nM | – |
| Nc1nc(NCCNc2ccc(N3CCN(CC(F)(F)F)CC3=O)c(-c3ccc(Cl)cc3Cl)n2)ccc1[N+](=O)[O-] | 18 nM | 1800 nM | – |
| CCc1ccc(-c2nc(NCCNc3ccc([N+](=O)[O-])c(N)n3)ccc2N2CCN(C)CC2=O)cc1 | 52 nM | 290 nM | – |
| Nc1nc(NCCNc2ccc(N3CCNCC3=O)c(-c3ccc(Cl)cc3Cl)n2)ccc1[N+](=O)[O-] | 11 nM | 140 nM | – |
| Nc1nc(NCCNc2ccc(N3CCCCC3=O)c(-c3ccc(Cl)cc3Cl)n2)ccc1[N+](=O)[O-] | 13 nM | 70 nM | – |
| CN1CCN(c2ccc(NCCNc3ccc([N+](=O)[O-])c(N)n3)nc2-c2ccccc2)C(=O)C1 | 202 nM | – | – |
| CN1CCN(c2ccc(NCCNc3ccc([N+](=O)[O-])c(N)n3)nc2-c2ccccc2C(F)(F)F)C(=O)C1 | 57 nM | 760 nM | – |
| Nc1nc(NCCNc2ccc(NC(=O)CNCCO)c(-c3ccc(Cl)cc3Cl)n2)ccc1[N+](=O)[O-] | 12 nM | 1600 nM | – |
| CN1CCN(c2ccc(NCCNc3ccc([N+](=O)[O-])c(N)n3)nc2-c2cccc(Cl)c2)C(=O)C1 | 74 nM | 3000 nM | – |
| CN1CCN(c2ccc(NCCNc3ccc([N+](=O)[O-])c(N)n3)nc2-c2ccc(Cl)cc2)C(=O)C1 | 44 nM | 760 nM | – |
| CN1CCN(c2ccc(NCCNc3ccc([N+](=O)[O-])c(N)n3)nc2-c2ccccc2Cl)C(=O)C1 | 29 nM | 1350 nM | – |
| Cc1cnc(-c2cnc(NCCNc3ccc(C#N)cn3)nc2-c2ccc(Cl)cc2Cl)[nH]1 [LADUVIGLUSIB] | – | 770 nM | EC50 [12]: 770 nM |
| CN1CCN(c2ccc(NCCNc3ccc([N+](=O)[O-])c(N)n3)nc2-c2ccc(F)cc2F)C(=O)C1 | 69 nM | 1080 nM | – |

Now from value to compound, other results behind:

| IC50 [1] | EC50 [2] | SMILES | other results |
| --- | --- | --- | --- |
| 13 nM | 1400 nM | CC(=O)N1CCN(c2ccc(NCCNc3ccc([N+](=O)[O-])c(N)n3)nc2-c2ccc(Cl)cc2Cl)C(=O)C1 | – |
| 207 nM | – | C[C@H](CNc1ccc([N+](=O)[O-])c(N)n1)Nc1ccc(N2CCN(C)CC2=O)c(-c2ccc(Cl)cc2Cl)n1 | – |
| 5 nM | 530 nM | Nc1nc(NCCNc2ccc(N3CCCC3=O)c(-c3ccc(Cl)cc3Cl)n2)ccc1[N+](=O)[O-] | – |
| 8 nM | 130 nM | CN1CCN(c2ccc(NCCNc3ccc([N+](=O)[O-])c(N)n3)nc2-c2ccc(Cl)cc2Cl)C(=O)C1 | inhibition [3]: 99.5%; inhibition [4]: 95.8%; inhibition [5]: 92.2%; inhibition [6]: 97.4%; inhibition [7]: 98.3%; inhibition [8]: 91.8%; half-life [9]: 3.42 h; half-life [10]: 2.72 h; bioavailability [11]: 30%; ED50 (Rattus norvegicus): 10 mg/kg |
| 15 nM | 220 nM | CN1CCN(c2ccc(N(C)CCNc3ccc([N+](=O)[O-])c(N)n3)nc2-c2ccc(Cl)cc2Cl)C(=O)C1 | – |
| 1010 nM | – | C[C@H](CNc1ccc(N2CCN(C)CC2=O)c(-c2ccc(Cl)cc2Cl)n1)Nc1ccc([N+](=O)[O-])c(N)n1 | – |
| 66 nM | 1050 nM | C[C@@H](CNc1ccc(N2CCN(C)CC2=O)c(-c2ccc(Cl)cc2Cl)n1)Nc1ccc([N+](=O)[O-])c(N)n1 | – |
| 36 nM | 310 nM | C[C@@H](CNc1ccc([N+](=O)[O-])c(N)n1)Nc1ccc(N2CCN(C)CC2=O)c(-c2ccc(Cl)cc2Cl)n1 | – |
| 13 nM | 40 nM | Nc1nc(NCCNc2ccc(N3CCN(C4CC4)CC3=O)c(-c3ccc(Cl)cc3Cl)n2)ccc1[N+](=O)[O-] | – |
